Data on seven molecules can be found in BindingDB's records for doi:10.1111/j.1432-1033.1992.tb17252.x (Universit&Eacute, 1992).

pKi: −log10 of the molar value. Non-standard residues stand in square brackets, D forms with d. Residues, ends and D or L forms follow the SMILES beside them. ξ: configuration not given here. Ile(3ξ) = CCC(C)[C@H](N)C(=O)O

The experiment concerns the target T1, Pituitary adenylate cyclase-activating polypeptide (Homo sapiens, UniProt P18509).
T1 sequence (P18509 whole entry): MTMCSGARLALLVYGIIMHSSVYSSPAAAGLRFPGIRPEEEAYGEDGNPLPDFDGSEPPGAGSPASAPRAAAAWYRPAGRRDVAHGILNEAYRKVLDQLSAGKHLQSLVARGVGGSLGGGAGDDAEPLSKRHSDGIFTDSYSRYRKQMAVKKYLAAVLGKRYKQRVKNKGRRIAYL
The molecule `CSCC[C@H](NC(=O)[C@H](CCC(N)=O)NC(=O)[C@H](CCCCN)NC(=O)[C@H](CCCN=C(N)N)NC(=O)[C@H](Cc1ccc(O)cc1)NC(=O)[C@H](CCCN=C(N)N)NC(=O)[C@H](CO)NC(=O)[C@H](Cc1ccc(O)cc1)NC(=O)[C@@H](N)CO)C(=O)N[C@@H](C)C(=O)N[C@H](C(=O)N[C@@H](CCCCN)C(=O)N[C@@H](CCCCN)C(=O)N[C@@H](Cc1ccc(O)cc1)C(=O)N[C@@H](CC(C)C)C(=O)N[C@@H](C)C(=O)N[C@@H](C)C(=O)N[C@H](C(=O)N[C@@H](CC(C)C)C(=O)NCC(=O)N[C@@H](CCCCN)C(=O)N[C@@H](CCCN=C(N)N)C(=O)N[C@@H](Cc1ccc(O)cc1)C(=O)N[C@@H](CCCCN)C(=O)N[C@@H](CCC(N)=O)C(=O)N[C@@H](CCCN=C(N)N)C(=O)N[C@H](C(=O)N[C@@H](CCCCN)C(=O)N[C@@H](CC(N)=O)C(=O)N[C@@H](CCCCN)C(N)=O)C(C)C)C(C)C)C(C)C` [PACAP(9-38)] (H-SYSRYRKQMAVKKYLAAVLGKRYKQRVKNK-NH2) had a pKi of 7.30.

`CCC(C)[C@H](NC(=O)CNC(=O)[C@@H](N)CC(=O)O)C(=O)N[C@@H](Cc1ccccc1)C(=O)N[C@H](C(=O)N[C@@H](CC(=O)O)C(=O)N[C@@H](CO)C(=O)N[C@@H](Cc1ccc(O)cc1)C(=O)N[C@@H](CO)C(=O)N[C@@H](CCCN=C(N)N)C(=O)N[C@@H](Cc1ccc(O)cc1)C(=O)N[C@@H](CCCN=C(N)N)C(=O)N[C@@H](CCCCN)C(=O)N[C@@H](CCC(N)=O)C(=O)N[C@@H](CCSC)C(=O)N[C@@H](C)C(=O)N[C@H](C(=O)N[C@@H](CCCCN)C(=O)N[C@@H](CCCCN)C(=O)N[C@@H](Cc1ccc(O)cc1)C(=O)N[C@@H](CC(C)C)C(=O)N[C@@H](C)C(=O)N[C@@H](C)C(=O)N[C@H](C(=O)N[C@@H](CC(C)C)C(=O)NCC(=O)N[C@@H](CCCCN)C(=O)N[C@@H](CCCN=C(N)N)C(=O)N[C@@H](Cc1ccc(O)cc1)C(=O)N[C@@H](CCCCN)C(=O)N[C@@H](CCC(N)=O)C(=O)N[C@@H](CCCN=C(N)N)C(=O)N[C@H](C(=O)N[C@@H](CCCCN)C(=O)N[C@@H](CC(N)=O)C(=O)N[C@@H](CCCCN)C(N)=O)C(C)C)C(C)C)C(C)C)[C@@H](C)O` (some centres not stated) [PACAP(3-38)] (H-DG[Ile(3ξ)]FTDSYSRYRKQMAVKKYLAAVLGKRYKQRVKNK-NH2) gave a pKi of 7.54. This pKi is 0.24 log units higher than that of the molecule before.

On to `CSCC[C@H](NC(=O)[C@H](CCC(N)=O)NC(=O)[C@H](CCCCN)NC(=O)[C@H](CCCN=C(N)N)NC(=O)[C@H](Cc1ccc(O)cc1)NC(=O)[C@H](CCCN=C(N)N)NC(=O)[C@H](CO)NC(=O)[C@H](Cc1ccc(O)cc1)NC(=O)[C@H](CO)NC(=O)[C@H](CC(=O)O)NC(=O)[C@@H](NC(=O)[C@@H](N)Cc1ccccc1)[C@@H](C)O)C(=O)N[C@@H](C)C(=O)N[C@H](C(=O)N[C@@H](CCCCN)C(=O)N[C@@H](CCCCN)C(=O)N[C@@H](Cc1ccc(O)cc1)C(=O)N[C@@H](CC(C)C)C(=O)N[C@@H](C)C(=O)N[C@@H](C)C(=O)N[C@H](C(=O)N[C@@H](CC(C)C)C(N)=O)C(C)C)C(C)C` [PACAP(5-27)] (H-FTDSYSRYRKQMAVKKYLAAVL-NH2), for which the pKi was 6.82. Compared with the last molecule, the pKi is 0.72 log units lower.

Consider `CCC(C)[C@H](NC(=O)CN)C(=O)N[C@@H](Cc1ccccc1)C(=O)N[C@H](C(=O)N[C@@H](CC(=O)O)C(=O)N[C@@H](CO)C(=O)N[C@@H](Cc1ccc(O)cc1)C(=O)N[C@@H](CO)C(=O)N[C@@H](CCCN=C(N)N)C(=O)N[C@@H](Cc1ccc(O)cc1)C(=O)N[C@@H](CCCN=C(N)N)C(=O)N[C@@H](CCCCN)C(=O)N[C@@H](CCC(N)=O)C(=O)N[C@@H](CCSC)C(=O)N[C@@H](C)C(=O)N[C@H](C(=O)N[C@@H](CCCCN)C(=O)N[C@@H](CCCCN)C(=O)N[C@@H](Cc1ccc(O)cc1)C(=O)N[C@@H](CC(C)C)C(=O)N[C@@H](C)C(=O)N[C@@H](C)C(=O)N[C@H](C(=O)N[C@@H](CC(C)C)C(N)=O)C(C)C)C(C)C)[C@@H](C)O` (some centres not stated) [PACAP(4-27)] (H-G[Ile(3ξ)]FTDSYSRYRKQMAVKKYLAAVL-NH2), for which the pKi is 6.30.

Take `CSCC[C@H](NC(=O)[C@H](CCC(N)=O)NC(=O)[C@H](CCCCN)NC(=O)[C@H](CCCN=C(N)N)NC(=O)[C@H](Cc1ccc(O)cc1)NC(=O)[C@H](CCCN=C(N)N)NC(=O)[C@H](CO)NC(=O)[C@H](Cc1ccc(O)cc1)NC(=O)[C@H](CO)NC(=O)[C@@H](N)CC(=O)O)C(=O)N[C@@H](C)C(=O)N[C@H](C(=O)N[C@@H](CCCCN)C(=O)N[C@@H](CCCCN)C(=O)N[C@@H](Cc1ccc(O)cc1)C(=O)N[C@@H](CC(C)C)C(=O)N[C@@H](C)C(=O)N[C@@H](C)C(=O)N[C@H](C(=O)N[C@@H](CC(C)C)C(=O)NCC(=O)N[C@@H](CCCCN)C(=O)N[C@@H](CCCN=C(N)N)C(=O)N[C@@H](Cc1ccc(O)cc1)C(=O)N[C@@H](CCCCN)C(=O)N[C@@H](CCC(N)=O)C(=O)N[C@@H](CCCN=C(N)N)C(=O)N[C@H](C(=O)N[C@@H](CCCCN)C(=O)N[C@@H](CC(N)=O)C(=O)N[C@@H](CCCCN)C(N)=O)C(C)C)C(C)C)C(C)C` [PACAP(8-38)] (H-DSYSRYRKQMAVKKYLAAVLGKRYKQRVKNK-NH2): the pKi is 7.52. Against the preceding molecule, the pKi is 1.22 log units higher.

Take `CSCC[C@H](NC(=O)[C@H](CCC(N)=O)NC(=O)[C@H](CCCCN)NC(=O)[C@H](CCCN=C(N)N)NC(=O)[C@H](Cc1ccc(O)cc1)NC(=O)[C@H](CCCN=C(N)N)NC(=O)[C@H](CO)NC(=O)[C@H](Cc1ccc(O)cc1)NC(=O)[C@H](CO)NC(=O)[C@@H](N)CC(=O)O)C(=O)N[C@@H](C)C(=O)N[C@H](C(=O)N[C@@H](CCCCN)C(=O)N[C@@H](CCCCN)C(=O)N[C@@H](Cc1ccc(O)cc1)C(=O)N[C@@H](CC(C)C)C(=O)N[C@@H](C)C(=O)N[C@@H](C)C(=O)N[C@H](C(=O)N[C@@H](CC(C)C)C(N)=O)C(C)C)C(C)C` [PACAP(8-27)] (H-DSYSRYRKQMAVKKYLAAVL-NH2): the pKi is 5.89.

For `CSCC[C@H](NC(=O)[C@H](CCC(N)=O)NC(=O)[C@H](CCCCN)NC(=O)[C@H](CCCN=C(N)N)NC(=O)[C@H](Cc1ccc(O)cc1)NC(=O)[C@H](CCCN=C(N)N)NC(=O)[C@H](CO)NC(=O)[C@H](Cc1ccc(O)cc1)NC(=O)[C@H](CO)NC(=O)[C@H](CC(=O)O)NC(=O)[C@@H](N)[C@@H](C)O)C(=O)N[C@@H](C)C(=O)N[C@H](C(=O)N[C@@H](CCCCN)C(=O)N[C@@H](CCCCN)C(=O)N[C@@H](Cc1ccc(O)cc1)C(=O)N[C@@H](CC(C)C)C(=O)N[C@@H](C)C(=O)N[C@@H](C)C(=O)N[C@H](C(=O)N[C@@H](CC(C)C)C(N)=O)C(C)C)C(C)C` [PACAP(6-27)] (H-TDSYSRYRKQMAVKKYLAAVL-NH2), the pKi is 7.00.
